The results in this text go back to patent US11365195B2, “Atypical inhibitors of monoamine transporters; method of making; and use thereof” (THE UNITED STATES OF AMERICA, AS REPRESENTED BY THE …, priority 2017, dated 2022).

The target in one data set is T1, SERT (Rattus norvegicus, UniProt P31652).
T1 construct: 100 μl of tissue preparation (2 mg of brain stem membranes per well); tissue Bioreclamation IVT (Hicksville, N.Y.); host or cells: male Sprague-Dawley rat brain stem membranes
Briefly: SERT radioligand binding in rat midbrain ([3H]-Citalopram competition). Conditions: rat midbrain/brain stem membranes, [3H]-Citalopram, mean ± SEM; read-out: SERT (rat mid-brain-stem) Ki ± SEM. How it is done: (§1) Binding affinities of the analogue compounds were evaluated at the DAT and SERT in rat brain membranes, and sigma-1 in guinea pig brain membranes according to the following protocols.
SERT Radioligand Binding in Rat Midbrain
(§2) The tissue was centrifuged at 20,000 rpm for 10 min at 4° C. The pellet was suspended in cold buffer and centrifuged again using the same settings. The resulting pellet was resuspended in cold buffer at a concentration of 20 mg/mL OWW (original wet weight). On test day, all test compounds were freshly dissolved in 30% DMSO and 70% H2O to a stock concentration of 1 mM or 100 μM. When necessary, to assist the solubilization of compounds, 10 μl of glacial acetic acid was added along with the DMSO (in place of 10 μl final H2O volume). Each test compound was then diluted into 10 half-log serial dilutions using 30% DMSO vehicle. […] Non-specific binding was determined using 10 μL Fluoxetine HCl and total binding was determined with 30% DMSO vehicle. The reaction was started with the addition of the tissue. All compound dilutions were tested in triplicate and the reaction incubated for 60 min at room temperature. The reaction was terminated by filtration through Perkin Elmer Uni-Filter-96 GF/B, presoaked for 60 min in 0.3% polyethylenimine, using a Brandel 96-Well Plates Harvester Manifold (Brandel Instruments, Gaithersburg, Md.). The filters were washed 3 times with 3 mL (3×1 mL/well) of ice cold binding buffer. […] These analyses were performed using GraphPad Prism version 6.00 for Macintosh (GraphPad Software, San Diego, Calif.).

Data set [1] is described as follows: Phase I metabolic stability in rat liver microsomes. The note with it: for Phase I in Liver Microsomes, Negative Control: rat liver microsomes lacking NADPH; for Phase I in Liver Microsomes, Rat: with NADPH, 10 μM compound, 0.5 mg/mL microsomes; for stability to Phase I metabolism (in words): rat liver microsomes fortified with NADPH. The format is in vitro ADME. On the procedure: Methods: Phase I metabolic stability assays were conducted in rat liver microsomes. For phase I metabolism, the reactions were carried out with 100 mM potassium phosphate buffer, pH 7.4, in the presence of NADPH regenerating system (1.3 mM NADPH, 3.3 mM glucose 6-phosphate, 3.3 mM MgCl2, 0.4 U/mL glucose-6-phosphate dehydrogenase, […] sodium citrate). Reactions in triplicate were initiated by addition of the liver microsomes to the incubation mixture (compound final concentration was 10 μM; 0.5 mg/mL microsomes). Compound disappearance was monitored via LC/MS/MS. […] The total run time for each analyte was 5.0 min.
(Microsomes from liver hold many membrane-bound enzymes, among them those of drug oxidation.)

For another data set, the target named is T2, σ1R (Cavia porcellus, UniProt Q60492).
T2 construct: tissue BioReclamation IVT (Hicksville, N.Y.); host or cells: male Hartley guinea pig brain cortex membranes
T2 sequence (Q60492 whole entry): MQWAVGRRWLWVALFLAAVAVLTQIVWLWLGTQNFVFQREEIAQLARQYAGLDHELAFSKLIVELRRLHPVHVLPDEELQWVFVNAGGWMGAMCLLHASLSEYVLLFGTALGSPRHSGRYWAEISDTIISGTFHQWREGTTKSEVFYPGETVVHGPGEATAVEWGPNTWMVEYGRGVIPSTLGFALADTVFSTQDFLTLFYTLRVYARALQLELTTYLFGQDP
Briefly: σ1R radioligand binding in guinea pig cortex ([3H]-(+)-Pentazocine competition). Conditions: for σ1/DAT: ratio of σ1 to DAT affinity values; for σ1/SERT: ratio of σ1 to SERT affinity values. How it is done: as §1
σ1R Radioligand Binding in Guinea Pig Cortex
Male Hartley guinea pig cortices were dissected from freshly harvested brains (shipped cold in PBS buffer from BioReclamation IVT (Hicksville, N.Y.)) and frozen at −80° C. for future use. […] The supernatant was collected in a clean tube and the pellet re-suspended in 10 ml of cold buffer and centrifuged again (˜1,200 rpm) for 10 min at 4° C. […] The final pellet was suspended in ice-cold binding buffer at 50 mg/ml concentration. […] All test compounds were freshly dissolved in 30% DMSO and 70% H2O to a stock concentration of 1 mM or 100 μM. When necessary, to assist the solubilization of compounds, 10 μl of glacial acetic acid was added along with the DMSO (in place of 10 μl final H2O volume). Each test compound was then diluted into 10 half-log serial dilutions using 30% DMSO as the vehicle. […] Nonspecific binding was determined using either 10 μM PRE084 or 10 μM (+)-Pentazocine and total binding was determined with 30% DMSO vehicle (3% DMSO final concentration). […] The filters were washed 3 times with 3 ml (3×1 ml/well) of ice cold binding buffer.

The target of another data set is T3, DAT (Rattus norvegicus, UniProt P23977).
T3 construct: 100 μl of tissue preparation (1.5 mg of brain striatum membranes per well); tissue Bioreclamation IVT (Hicksville, N.Y.); host or cells: male Sprague-Dawley rat brain striatum membranes
T3 sequence (P23977 whole entry): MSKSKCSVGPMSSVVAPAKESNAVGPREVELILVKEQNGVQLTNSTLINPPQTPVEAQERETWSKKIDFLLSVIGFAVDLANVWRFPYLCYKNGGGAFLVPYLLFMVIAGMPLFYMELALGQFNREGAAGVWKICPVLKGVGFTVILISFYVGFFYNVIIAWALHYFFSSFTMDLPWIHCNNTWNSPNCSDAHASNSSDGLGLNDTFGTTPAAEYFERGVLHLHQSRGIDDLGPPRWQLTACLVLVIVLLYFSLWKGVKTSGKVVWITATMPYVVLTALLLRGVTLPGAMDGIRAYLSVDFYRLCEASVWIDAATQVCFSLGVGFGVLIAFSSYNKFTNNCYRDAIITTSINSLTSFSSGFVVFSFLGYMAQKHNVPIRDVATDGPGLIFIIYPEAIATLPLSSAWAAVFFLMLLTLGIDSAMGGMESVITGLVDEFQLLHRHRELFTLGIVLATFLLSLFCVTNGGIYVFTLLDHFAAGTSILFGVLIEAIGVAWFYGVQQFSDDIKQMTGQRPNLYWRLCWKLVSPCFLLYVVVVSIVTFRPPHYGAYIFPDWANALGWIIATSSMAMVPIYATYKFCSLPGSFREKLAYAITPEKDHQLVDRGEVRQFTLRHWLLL
Kind of data set: DAT radioligand binding in rat striatum ([3H]-WIN35,428 competition). Conditions: for SERT/DAT: ratio of SERT Ki to DAT Ki. On the procedure: as §1
DAT Radioligand Binding in Rat Striatum
as §2, with “of 15” for “of 20”, “100 μM” for “100 μM.”, “[…] Indatraline” for “μL Fluoxetine HCl”, “tissue. […]” for “tissue. All compound dilutions were tested in triplicate and the reaction incubated for 60 min at room temperature. The reaction was terminated by filtration through Perkin Elmer Uni-Filter-96 GF/B, presoaked for 60 min in 0.3% polyethylenimine, using a Brandel 96-Well Plates Harvester Manifold (Brandel Instruments, Gaithersburg, Md.).”

Setting [2] is: rat striatum membranes, [3H]-WIN35,428, mean ± SEM, read-out: DAT (rat striatum) Ki ± SEM.

Each structure is given as a SMILES string. Like-named read-outs stand apart in the source and are kept apart here.

By Ki is commonly meant a measure of affinity in units of concentration, obtained from inhibition or displacement. The term Kd denotes the concentration at which binding is half-saturated. A high value points to a looser complex.

T1 sequence (P31652 whole entry): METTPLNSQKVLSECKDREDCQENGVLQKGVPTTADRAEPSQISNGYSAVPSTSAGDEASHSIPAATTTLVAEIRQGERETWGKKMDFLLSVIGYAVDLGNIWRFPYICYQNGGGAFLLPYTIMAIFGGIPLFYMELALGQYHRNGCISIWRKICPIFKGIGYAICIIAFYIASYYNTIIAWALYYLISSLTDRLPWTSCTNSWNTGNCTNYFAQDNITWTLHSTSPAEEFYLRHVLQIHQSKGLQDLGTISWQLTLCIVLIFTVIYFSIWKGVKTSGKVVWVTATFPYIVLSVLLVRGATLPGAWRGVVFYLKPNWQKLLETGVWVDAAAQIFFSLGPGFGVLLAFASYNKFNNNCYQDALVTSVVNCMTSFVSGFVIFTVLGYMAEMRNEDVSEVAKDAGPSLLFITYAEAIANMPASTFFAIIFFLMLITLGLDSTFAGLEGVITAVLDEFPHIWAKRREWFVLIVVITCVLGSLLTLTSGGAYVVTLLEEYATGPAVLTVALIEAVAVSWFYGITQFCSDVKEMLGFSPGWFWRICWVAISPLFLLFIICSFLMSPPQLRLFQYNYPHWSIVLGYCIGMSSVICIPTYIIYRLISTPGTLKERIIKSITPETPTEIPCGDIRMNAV

Regarding `CC(O)CN1[C@H](C)CN(CCSC(c2ccc(F)cc2)c2ccc(F)cc2)C[C@@H]1C` (stereo partly drawn) [RDS03-094, 1-((2S,6R)-4-(2-((Bis(4-fluorophenyl)methyl)thio)ethyl)-2,6-dimethylpiperazin-1-yl)propan-2-ol], the Ki on SERT was determined as 14800 ± 2260 nM. Further, in data set [1] (0 min), the “Phase I in Liver Microsomes, Negative Control” value (shortened to “Phase I … Negative Control”) is on record as 100% and the “Phase I in Liver Microsomes, Rat” value came to 100%. For the same compound, in data set [1] (30 min), the “Phase I … Negative Control” value turned out to be 106% and the “Phase I in Liver Microsomes, Rat” value amounted to 99%. Also, in data set [1] (60 min), the “Phase I … Negative Control” value is 109% and the “Phase I in Liver Microsomes, Rat” value stood at 68%. Moreover, in data set [1], the “stability to Phase I metabolism (in words)” value (from here on “stability”) was “moderate stability”. On σ1R, the σ1/DAT turned out to be 0.24 and the σ1/SERT is listed as 0.00038. Moreover, on DAT, the inhibition constant Ki is 23.5 ± 2.12 nM and the SERT/DAT was determined as 629.79.
Consider `O=C(c1ccc(F)cc1)N1CCC(NCCSC(c2ccc(F)cc2)c2ccc(F)cc2)CC1` [JBG02-028, (4-((2-((Bis(4-fluorophenyl)methyl)thio)ethyl)amino)piperidin-1-yl)(4-fluorophenyl)methanone], for which the Ki on SERT was 485 ± 32 nM. In addition, in data set [1] (0 min), the “Phase I … Negative Control” value was 100% and the “Phase I in Liver Microsomes, Rat” value is recorded as 100%. Further, in data set [1] (30 min), the “Phase I in Liver Microsomes, Rat” value was determined as 40%. Also, in data set [1] (60 min), the “Phase I … Negative Control” value stood at 101% and the “Phase I in Liver Microsomes, Rat” value came to 24%. In addition, the “stability” value in data set [1] is recorded as “susceptibility”. Besides, at σ1R, the σ1/DAT turned out to be 4.43 and the σ1/SERT is given as 0.066. For the same compound, on DAT, the Ki was found to be 7.24 ± 0.78 nM and the SERT/DAT was 66.99.
With `Cl.Cl.[O-][S+](CCNC1CCN(Cc2ccc(F)cc2)CC1)C(c1ccc(F)cc1)c1ccc(F)cc1` (centres unmarked) [JBG02-054, N-(2-((Bis(4-fluorophenyl)methyl)sulfinyl)ethyl)-1-(4-fluorobenzyl)piperidin-4-amine], the Ki on SERT was determined as 370 ± 23.7 nM; on DAT (setting [2]) it was 50.6 ± 11.2 nM. The “Phase I … Negative Control” value in data set [1] (0 min) amounted to 100%; in data set [1] (30 min) it was 102%; in data set [1] (60 min), 102%. Moreover, the entries for the “Phase I in Liver Microsomes, Rat” value in data set [1] (0 min), in data set [1] (30 min) and in data set [1] (60 min) were 100%, 100% and 95%, respectively. The σ1/DAT at σ1R was determined as 0.52. At σ1R, the σ1/SERT amounted to 0.072. Moreover, the SERT/DAT at DAT is 7.31.
`[O-][S+](CCNC1CCN(CC(O)Cc2ccccc2)CC1)C(c1ccc(F)cc1)c1ccc(F)cc1` (centres unmarked) [JBG02-057, 1-(4-((2-((Bis(4-fluorophenyl)methyl)sulfinyl)ethyl)amino)piperidin-1-yl)-3-phenylpropan-2-ol]: on SERT, the inhibition constant Ki came out at 595 ± 54.1 nM. In data set [1] (0 min), the “Phase I … Negative Control” value is 100% and the “Phase I in Liver Microsomes, Rat” value was found to be 100%. Further, in data set [1] (30 min), the “Phase I … Negative Control” value amounted to 102% and the “Phase I in Liver Microsomes, Rat” value stood at 50%. In addition, in data set [1] (60 min), the “Phase I … Negative Control” value is on record as 100% and the “Phase I in Liver Microsomes, Rat” value is listed as 22%. In addition, the “stability” value in data set [1] was “susceptibility”. In addition, at σ1R, the Kd turned out to be 346 ± 27.1 nM, the σ1/DAT was 3.77 and the σ1/SERT stood at 0.58. In addition, the inhibition constant (Ki) at DAT (setting [2]) is 91.8 ± 21.3 nM. In addition, the SERT/DAT at DAT amounted to 6.48.
Turning to `C[C@@H]1CN(CCSC(c2ccc(F)cc2)c2ccc(F)cc2)C[C@H](C)N1CC(O)Cc1ccccc1` (stereo partly drawn) [RDS03-095, 1-((2S,6R)-4-(2-((bis(4-fluorophenyl)methyl)thio)ethyl)-2,6-dimethylpiperazin-1-yl)-3-phenylpropan-2-ol], the inhibition constant (Ki) on SERT stood at 1600 ± 152 nM; on DAT (setting [2]), 2 ± 0.15 nM. Also, the entries for the “Phase I … Negative Control” value in data set [1] (0 min), in data set [1] (30 min) and in data set [1] (60 min) were 100%, 117% and 125%, respectively. Besides, the “Phase I in Liver Microsomes, Rat” value in data set [1] (0 min) turned out to be 100%; in data set [1] (30 min), 42%; in data set [1] (60 min) it was 10%. For the same compound, the “stability” value in data set [1] is listed as “susceptibility”. Further, the σ1/DAT on σ1R is on record as 7.60. Also, at σ1R, the σ1/SERT is 0.010. In addition, the SERT/DAT at DAT is reported as 800.00.
As for `OC(CN1CCC2(CCN(CCSC(c3ccc(F)cc3)c3ccc(F)cc3)CC2)C1)c1ccccc1` (centres unmarked) [RDS04-002], the Ki on SERT is 124 ± 38.2 nM; at DAT (setting [2]) it was 125 ± 9.7 nM. In addition, the “Phase I … Negative Control” value in data set [1] (0 min) is reported as 100%; in data set [1] (30 min), 128%; in data set [1] (60 min) it was 125%. For the same compound, the “Phase I in Liver Microsomes, Rat” value in data set [1] (0 min), in data set [1] (30 min) and in data set [1] (60 min) was 100% throughout. For the same compound, at σ1R, the σ1/DAT is 0.36. For the same compound, on σ1R, the σ1/SERT turned out to be 0.37. Besides, at DAT, the SERT/DAT is 0.99.
For `Cl.Cl.Fc1ccc(CN2CCC(NCCSC(c3ccc(F)cc3)c3ccc(F)cc3)CC2)cc1` [JBG01-077, N-(2-((Bis(4-fluorophenyl)methyl)thio)ethyl)-1-(4-fluorobenzyl)piperidin-4-amine], the values for the Ki on SERT and on DAT (setting [2]) were 277 ± 5.94 nM and 25.5 ± 6.95 nM, respectively. Moreover, the “Phase I … Negative Control” value is 100% in data set [1] (0 min) and 111% in data set [1] (60 min). Besides, the “Phase I in Liver Microsomes, Rat” value came to 100% in data set [1] (0 min), 88% in data set [1] (30 min) and 70% in data set [1] (60 min). At σ1R, the σ1/DAT was 0.52. The σ1/SERT on σ1R was 0.048. For the same compound, on DAT, the SERT/DAT was 10.86.
